Measured values as given in article PMC3543412, “Fatty Acid Solubilizer from the Oral Disk of the Blowfly” (PLoS ONE, 2013).

Tests used:
[1] = molecular target: T1, PregOBP56a (Phormia regina odorant-binding protein 56a) (Phormia regina, UniProt L8B8J6); assay: direct fluorescence titration of the reporter probe, pH […]
T1 construct: recombinant mature PregOBP56a (117 amino acid residues)
T1 sequence (L8B8J6 19-135): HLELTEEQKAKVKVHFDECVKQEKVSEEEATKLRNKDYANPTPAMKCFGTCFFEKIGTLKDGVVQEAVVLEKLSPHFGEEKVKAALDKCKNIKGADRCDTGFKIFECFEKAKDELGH

[2] = molecular target: T1, PregOBP56a (Phormia regina odorant-binding protein 56a); assay: fluorescence competitive binding assay (1-NPN displacement), pH […]

Compound | Kd [2] [nM] | Kd [1] [nM]
c1ccc(Nc2cccc3ccccc23)cc1 [1-NPN, N-phenyl-1-naphthylamine] |  | 11400
CCCCCCCC/C=C\CCCCCCCC(=O)O [oleic acid] | 710 | 

Now from value to compound, other results behind:

Kd [2] [nM] | Compound | Kd [1] [nM]
510 | CCCCC/C=C\C/C=C\CCCCCCCC(=O)O [linoleic acid] | 
280 | CCCCCCCCCCCCCCCC(=O)O [palmitic acid] | 
350 | CCCCCCCCCCCCCCCCCC(=O)O [stearic acid] | 
